The record followed here is PubChem BioAssay AID463203 (Broad Institute, 2010).

Active and inactive are the calls of the source.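 The calls were made as follows: active = more than half of replicate measurements showing over 20% loss of kinase signal relative to plate controls; inconclusive = some but at most half of replicates over 20% loss; inactive = no replicate over 20% signal loss.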

This assay deals with Glycogen synthase kinase-3 alpha (Homo sapiens) (UniProt P49840). As to the kind of experiment: concentration-response blocking of human GSK3A – biochemical, luminescence, cell-free homogeneous, retest, dose response (AID 463203). The following applies: GSK-3 alpha enzyme, ADP-Glo luminescence, 60 min.
Glycogen synthase kinase-3 alpha (Homo sapiens), sequence (P49840 whole entry, looked up): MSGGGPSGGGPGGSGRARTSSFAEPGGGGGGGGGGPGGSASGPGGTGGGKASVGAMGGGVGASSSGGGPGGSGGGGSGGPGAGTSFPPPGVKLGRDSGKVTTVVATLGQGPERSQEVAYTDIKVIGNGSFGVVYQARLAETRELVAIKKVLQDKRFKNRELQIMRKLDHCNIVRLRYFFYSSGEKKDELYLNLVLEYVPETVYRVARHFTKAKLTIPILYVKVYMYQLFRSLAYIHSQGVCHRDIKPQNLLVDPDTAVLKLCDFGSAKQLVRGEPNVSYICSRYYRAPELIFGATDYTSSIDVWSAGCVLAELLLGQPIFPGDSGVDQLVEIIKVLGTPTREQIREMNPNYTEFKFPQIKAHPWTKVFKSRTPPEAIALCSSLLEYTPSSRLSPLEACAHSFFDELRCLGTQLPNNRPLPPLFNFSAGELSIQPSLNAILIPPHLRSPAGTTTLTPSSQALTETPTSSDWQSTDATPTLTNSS
Broadly, the AC50 is the midpoint of the concentration-response curve, whichever way the signal moves. In the case of `Cc1ccc(N2C(S)=C(C#N)C(=O)NC2c2ccco2)cc1` (centres undefined), the AC50 was > 30 µM (inactive).

As to `CN(C)C(=O)Oc1ccc(OC(=O)N(C)C)cc1`, the AC50 is > 30 µM (inactive). The value for `O=C(CN1CCOCC1)Nc1cccc(Br)c1` was > 30 µM (inactive); that for `COc1ccc(OCc2nc(N)nc(Nc3ccccc3)n2)cc1` was > 30 µM (inactive); that for `CC(=O)Nc1ccc(Nc2ncnc(N)c2[N+](=O)[O-])cc1` was > 30 µM (inactive). To `Cc1ccc2nc(-c3ccccc3N)[nH]c2c1` belongs > 30 µM (inactive); to `O=C1CCCC2=C1C(c1ccc(O)cc1)c1c(ccc3ccccc13)N2` (centres undefined), > 30 µM (inactive). The value for `O=C(NCc1ccc(C(=O)N2CCC3(CC2)OCCO3)cc1)c1cccc(Br)c1` was > 30 µM (inactive). For `COc1c(OC)c(O)c2c(=O)c(O)c(-c3ccccc3)oc2c1OC`, the AC50 is > 30 µM (inactive). The value for `CN(C)c1ccc(CN2CCCCC2)cc1` was > 30 µM (inactive); that for `Fc1ccccc1N1CCN(CCCNc2ccc3nncn3n2)CC1` was > 30 µM (inactive).

In the case of `CNc1nnc(-c2cc3ccccc3oc2=O)s1`, the AC50 was 8.99 µM.

With `Cc1ccc(C)c(-n2c3nc(=O)n(C)c(=O)c-3cc3ccccc32)c1`, the AC50 was 31.3 µM. The value for `O=C(C[n+]1ccccc1)c1ccc(Cl)cc1` was > 30 µM (inactive); that for `O=C(COC(=O)Cc1ccsc1)Nc1ccc(Cl)cn1` was 28.4 µM; that for `CCN1CCN(c2nc(Nc3cccc(OC)c3)nc(N)c2[N+](=O)[O-])CC1` was > 30 µM (inactive). To `CC(C(=O)Nc1nccs1)c1ccc([N+](=O)[O-])cc1` (centres undefined) belongs 20.5 µM; to `CN(C)c1nc2sc3c(c2c(=O)n1C)CC(C)(C)OC3`, > 30 µM (inactive); to `O=[N+]([O-])c1ccc(COc2ccccc2/C=N/O)cc1`, > 30 µM (inactive). To `COc1ccc(-c2nc3ncccn3c2Nc2ccccc2)cc1` belongs > 30 µM (inactive); to `CC1(C)CC(=O)C(C=Nc2ccc(O)cc2)=C(O)C1`, > 30 µM (inactive).

For the compound `COc1ccc(-c2noc(CSc3nc(N)cc(=O)[nH]3)n2)cc1`, the AC50 was > 30 µM (inactive). The value for `Cc1ccccc1N=Nc1c(O)[nH]c2ccccc12` was > 30 µM (inactive). The value for `CC1=C(C(=O)OCc2ccc3c(c2)OCO3)C(c2ccccc2OCc2ccccc2)NC(=O)N1` (centres undefined) was > 30 µM (inactive); that for `CC(=O)c1ccc(N=Nc2c(C)[nH][nH]c2=O)cc1` was 24.5 µM; that for `CC1(C)OC2OC(COC(=O)c3ccccc3)C3OC(C)(C)OC3C2O1` (centres undefined) was > 30 µM (inactive).

On to `O=c1cc(-c2ccncc2)oc2c1ccc1ccccc12`, for which the half-maximal activity concentration (AC50) was 0.312 µM. The value for `O=C1NC(=Nc2cccc(O)c2)S/C1=C\c1cccc([N+](=O)[O-])c1` was > 30 µM (inactive); that for `Cc1cnc(NC(=O)C2COc3ccccc3O2)s1` (centres undefined) was 19.2 µM. On to `Cc1[nH]nc(NCCO)c1[N+](=O)[O-]`, for which the AC50 was > 30 µM (inactive). Regarding `CC(C)=CC(=O)NCc1c(Cl)cccc1-n1cccc1`, the AC50 is > 30 µM (inactive). To `COc1ccc(-n2c(O)c(C=NC3CC3)c(=O)[nH]c2=O)cc1` belongs 24.9 µM.

For the compound `Cc1cccc(C)c1OCC(O)CNC(C)(C)C` (centres undefined), the AC50 is > 30 µM (inactive). Take `CCN(C(=O)CN1CCCCCC1)c1c(N)n(Cc2ccccc2)c(=O)[nH]c1=O`: the AC50 is > 30 µM (inactive). Consider `COc1ccc(-c2cc(C(F)(F)F)nc(SCCC(=O)NCc3ccco3)n2)cc1`, for which the AC50 was > 30 µM (inactive). To `COc1ccccc1-c1noc(CSc2nc(N)cc(=O)[nH]2)n1` belongs > 30 µM (inactive). The value for `CCN(CC)c1ccc(C2C(C(=O)OC(C)C)C(=O)CC(C)(O)C2C(=O)OC(C)C)cc1` (centres undefined) was > 30 µM (inactive); that for `CCOC(=O)C(CC)Sc1ccc2nnc(-c3cccnc3)n2n1` (centres undefined) was > 30 µM (inactive). Regarding `CC1(C)Oc2ccc3ccc(=O)oc3c2-c2cn[nH]c21`, the AC50 was 7.97 µM.

With `COc1ccccc1OC(C)C(=O)N1CCC(Cc2ccccc2)CC1` (centres undefined), the AC50 is > 30 µM (inactive).

As for `CO/N=C/c1ccc(N2CCCC2)c([N+](=O)[O-])c1`, the AC50 is > 30 µM (inactive). To `Cc1nc(NC(=O)c2ccc(Br)o2)sc1C` belongs > 30 µM (inactive); to `O=C(Cn1ncc2c(=O)oc3ccccc3c21)N1CCc2ccccc2C1`, > 30 µM (inactive); to `Cc1cc(OC(=O)c2c(C)cc(O)cc2O)cc(O)c1C(=O)O`, 27.8 µM. To `O=C(O)Cn1c(=O)c2c3c(sc2n(Cc2ccccc2)c1=O)CCCC3` belongs > 30 µM (inactive); to `COc1cccc(Nc2nc(N)c([N+](=O)[O-])c(NCc3ccccc3)n2)c1`, 13.4 µM; to `O=c1[nH]c2c(s1)C(c1ccccc1)C1C3CCC(C3)C1S2` (centres undefined), 1.98 µM. Consider `O=C(OCC1OC2OC3(CCCCC3)OC2C2OC3(CCCCC3)OC12)c1ccccc1` (centres undefined), for which the AC50 was > 30 µM (inactive). To `Cn1c(SCC(=O)N/N=C/C=C/c2ccco2)nc2ccccc21` belongs > 30 µM (inactive). To `CC(C)(C)c1cc(-c2nc(N)nc(N)n2)c(O)c(C(C)(C)C)c1` belongs > 30 µM (inactive); to `CCOC(=O)c1c(Cc2ccccc2)c[nH]c1C`, > 30 µM (inactive).

In the case of `COc1cc2ncc(S(=O)(=O)c3ccccc3)c(N3CCCC(C)C3)c2cc1OC` (centres undefined), the AC50 is > 30 µM (inactive).

As for `COCCCNC(=O)C(=O)NC1CCCCCC1`, the AC50 is > 30 µM (inactive).

`CCC(=NCCO)c1c(O)n(C2CCCCC2)c(=O)[nH]c1=O`: the AC50 was 19.4 µM. The value for `CCN1C(=O)/C(=C\c2ccco2)C(C(=O)OC)=C1C` was > 30 µM (inactive). The value for `CN(C)CCCNS(=O)(=O)c1ccc(-n2nnc3ccccc32)c([N+](=O)[O-])c1` was > 30 µM (inactive); that for `Oc1cccc(Nc2c3ccccc3nc3ccccc23)c1` was > 30 µM (inactive); that for `CCOc1ccc(-c2nnc(N)s2)cc1` was > 30 µM (inactive). To `O=C1Nc2ccccc2Sc2ccccc21` belongs > 30 µM (inactive). Consider `COc1cc(/C=C2/S/C(=N/S(=O)(=O)Cc3ccccc3)NC2=O)c([N+](=O)[O-])cc1OC`, for which the AC50 is > 30 µM (inactive).

For `CCOC(=O)c1cnc2ccc(OCC)cc2c1N1CCN(c2ccccc2OC)CC1`, the half-maximal activity concentration (AC50) was 3.95 µM. The value for `Cc1nc(SCC(=O)N(CC(C)C)C2CCS(=O)(=O)C2)c2ccccc2n1` (centres undefined) was > 30 µM (inactive); that for `Cc1ccc(C(=O)O/N=C(\N)c2cccc([N+](=O)[O-])c2)cc1` was > 30 µM (inactive); that for `CC1CCN(Cc2c(C(=O)N/N=C/c3ccc(C(C)(C)C)cc3)nnn2-c2nonc2N)CC1` was > 30 µM (inactive).

Regarding `Nc1nc(-c2ccccc2)cc(-c2ccccc2O)n1`, the AC50 is 25.4 µM.

With `CCc1ccc(/C=c2\s/c(=C\C(=O)C(C)(C)C)[nH]c2=O)cc1`, the AC50 was > 30 µM (inactive). For `O=C1/C(=C/c2ccc(Br)cc2)Oc2cc(O)ccc21`, the AC50 was > 30 µM (inactive). To `CN(C)c1ncnc2c1ncn2C1OC(CO)C(O)C1O` (centres undefined) belongs > 30 µM (inactive); to `COc1ccc(C(=O)NC(=O)CSc2nnc(-c3ccco3)n2-c2ccccc2)cc1`, > 30 µM (inactive); to `CCn1nc(-c2ccccc2)nc2c(=O)n(C)c(=O)nc1-2`, 27.3 µM. Take `Cc1nc(Nc2ccc(F)cc2)nc(Nc2ccc(F)cc2)c1[N+](=O)[O-]`: the AC50 is > 30 µM (inactive).

Take `COc1ccc(CC(=O)Oc2ccc(C)cc2C)cc1`: the AC50 was > 30 µM (inactive). For `CCCCc1ccc(NC(=O)N[C@@H](C)C(=O)O)cc1`, the AC50 is > 30 µM (inactive).

With `O=C(NCCCN1CCCC1)c1cc2c(Cl)nc3ccccc3c2s1`, the AC50 is > 30 µM (inactive).

In the case of `O=C(c1ccco1)N(Cc1ccccc1)c1cccc([N+](=O)[O-])c1`, the AC50 was > 30 µM (inactive). The value for `COc1c(-c2ccc(O)c(O)c2)oc2cc(O)cc(O)c2c1=O` was 1.93 µM.

Consider `COc1ccccc1N1CCN(CCC(=O)Nc2cccc(Cl)c2)CC1`, for which the concentration at half-maximal activity (AC50) was 19.3 µM. To `CCC(Oc1ccccc1)C(=O)Nc1ncc([N+](=O)[O-])s1` (centres undefined) belongs > 30 µM (inactive).

Turning to `CC1=Nn2c(nc3sc4c(c3c2=O)CCCC4)SC1`, the AC50 was > 30 µM (inactive). To `CCc1cc(C(=O)OC)c(NC(=O)CN2CCN(C(=O)c3ccco3)CC2)s1` belongs > 30 µM (inactive); to `O=C1c2ccccc2C(=O)c2c(Nc3ccc(CCO)cc3)ccc(O)c21`, > 30 µM (inactive). As for `Cc1nc(NCC2CCCO2)nc2c1C(=O)CC(C)(C)C2` (centres undefined), the AC50 was > 30 µM (inactive). The value for `COc1ccc2cc(C(N)=O)c(=Nc3ccc(C)cc3)oc2c1` was > 30 µM (inactive). To `O=S(=O)(Nc1ccc(-c2nnc(SCc3ccc(Cl)cc3)o2)cc1)c1ccccc1` belongs > 30 µM (inactive); to `O=C(CSc1ccc2nnc(-c3ccc(F)cc3)n2n1)N1CCCc2ccccc21`, 0.98 µM; to `CC(C(=O)Nc1cccc(Br)c1)c1ccc([N+](=O)[O-])cc1` (centres undefined), > 30 µM (inactive).

For `O=C(COc1ccccc1Cl)Nc1ccc(Cl)cn1`, the AC50 was > 30 µM (inactive). To `COCCCNc1nc2nonc2nc1N1C[C@H]2CC[C@H]1C2` belongs > 30 µM (inactive); to `Nc1ncc([N+](=O)[O-])s1`, > 30 µM (inactive); to `COc1ccc(C(=O)c2ccccc2Cl)cc1`, > 30 µM (inactive).

Take `CC(=O)Nc1cccc(-c2csc(Nc3ccccn3)n2)c1`: the AC50 is > 30 µM (inactive). The value for `COc1ccc(SCCN2CC[C@@H](C(C)(C)C)CCC2=O)cc1` was 23.6 µM; that for `c1cncc(CSc2nnc3ccc(-c4cccs4)nn23)c1` was 14.4 µM. The value for `Cc1ccc(N=C2NC(=O)/C(=C\c3ccc(C)s3)S2)cc1` was > 30 µM (inactive).
